From US20190047966A1, “NOVEL COMPOUND AND PHARMACOLOGICALLY ACCEPTABLE SALT THEREOF” (MEIJI SEIKA PHARMA CO., LTD., priority 2016, published 2019)
Where two headings read alike, the source gives them in different places.

Tests used:
[1] = target: T1, human histamine H4 receptor (Homo sapiens, UniProt Q9H3N8); assay: Evaluation of H4 Receptor Function ([35S]GTPγS binding); format: biochemical
T1 construct: purchased PerkinElmer Inc; host or cells: CHO-K1
Protocol: The antagonistic effect was evaluated by the method described below. Membrane preparation from recombinant CHO-K1 cell expressing the human histamine H4 receptor (PerkinElmer Inc.), 10 μM GDP, 0.1 μM histamine, and the compounds dissolved in DMSO were reacted at 30° C. for 20 minutes in a buffering solution containing 20 mM HEPES, pH 7.4, 100 mM NaCl, 10 mM MgCl2, 1 mM DTT, and 1 mM EDTA on an assay plate. Thereafter, SPA beads (Amersham plc) were added, followed by incubation for 60 minutes, and further 0.3 nM [^35S]GTPγS (PerkinElmer Inc.) was added, followed by incubation for 30 minutes.

[2] = target: T1, human histamine H4 receptor; assay: Evaluation of Human H4 Receptor Affinity ([3H]histamine binding); conditions: inhibition constant Ki, CHO-K1 membrane preparation
Summary of the method: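 Radioligand displacement: compound competes with 8.2 nM [3H]histamine at recombinant human H4 receptor in CHO-K1 membranes (Tris-HCl 50 mM pH 7.4, EDTA 1.25 mM; 25 °C, 90 min), with filter-bound radioactivity counted. IC50 was converted to Ki via Cheng-Prusoff (Kd 5.7 nM); 1.0 μM histamine set nonspecific binding.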

[3] = target: T2, human histamine H1 receptor (Homo sapiens, UniProt P35367); assay: Evaluation of Human H1 Receptor Affinity ([3H]pyrilamine binding); set-up: purchased PerkinElmer Inc; host or cells: CHO-K1; conditions: inhibition constant Ki, CHO-K1 membrane preparation
Summary of the method: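 Ki values are Cheng-Prusoff conversions of IC50 (Kd 1.1 nM) from radioligand displacement of 1.2 nM [3H]pyrilamine, with 1.0 μM pyrilamine defining nonspecific binding.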

[4] = target: T2, human histamine H1 receptor; assay: Evaluation of Human H1 Receptor Function (GeneBLAzer H1-NFAT-bla HEK 293T cells); format: cell-based; conditions: histamine 30 nM, read-out: Evaluation of H1 Receptor Function (IC50 value, antagonistic effect)
Protocol: Test Example 3: Evaluation of Human H1 Receptor Function
The antagonistic effect was evaluated by the method described below. GeneBLAzer® H1-NFAT-bla HEK 293T-cells (Invitrogen Corporation, recombinant cells expressing the human histamine H1 receptor) were incubated at 37° C. for 30 minutes in the presence of the test compounds dissolved in DMSO in a high glucose Dulbecco's Modified Eagle Medium (GlutaMAX, containing 10% fetal bovine serum, 100 μM nonessential amino acids, 25 mM HEPES, 100 U/mL penicillin, and 100 μg/mL streptomycin), and histamine was added such that the final concentration became 30 nM, followed by further incubation for 4.5 hours. Then, a mixture of LiveBLAzer™ FRET-B/G Loading Kit (Invitrogen Corporation) and Solution D (Invitrogen Corporation) was added, followed by leaving to stand at room temperature for 2 hours under shaded conditions. Thereafter, the fluorescence intensity was measured under two conditions of 400 nm/460 nm and 400 nm/535 nm (excitation light/fluorescence) by using a multilabel counter (EnVision: PerkinElmer Inc.). The 50% inhibitory concentration (IC50 value) was calculated in accordance with (measured value−blank measured value at 400 nm/460 nm)/(measured value−blank measured value at 400 nm/535 nm) of each test sample.

[5] = [35S]GTPγS binding, CHO-K1 membrane, 0.1 μM histamine, read-out: Evaluation of H4 Receptor Function (IC50 value, antagonistic effect)
[6] = read-out: Evaluation of H4 Receptor Affinity

T1 sequence (Q9H3N8 whole entry): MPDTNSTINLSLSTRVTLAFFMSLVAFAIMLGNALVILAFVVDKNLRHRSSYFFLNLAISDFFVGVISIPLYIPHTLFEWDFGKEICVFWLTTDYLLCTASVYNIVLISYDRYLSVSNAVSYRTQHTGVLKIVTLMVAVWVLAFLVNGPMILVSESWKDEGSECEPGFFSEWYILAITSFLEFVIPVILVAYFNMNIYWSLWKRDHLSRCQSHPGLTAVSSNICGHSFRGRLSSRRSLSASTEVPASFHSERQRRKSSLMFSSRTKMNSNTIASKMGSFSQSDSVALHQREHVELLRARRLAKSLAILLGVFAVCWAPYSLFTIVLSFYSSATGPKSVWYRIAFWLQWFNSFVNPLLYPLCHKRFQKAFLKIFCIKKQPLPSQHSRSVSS
T2 sequence (P35367 whole entry): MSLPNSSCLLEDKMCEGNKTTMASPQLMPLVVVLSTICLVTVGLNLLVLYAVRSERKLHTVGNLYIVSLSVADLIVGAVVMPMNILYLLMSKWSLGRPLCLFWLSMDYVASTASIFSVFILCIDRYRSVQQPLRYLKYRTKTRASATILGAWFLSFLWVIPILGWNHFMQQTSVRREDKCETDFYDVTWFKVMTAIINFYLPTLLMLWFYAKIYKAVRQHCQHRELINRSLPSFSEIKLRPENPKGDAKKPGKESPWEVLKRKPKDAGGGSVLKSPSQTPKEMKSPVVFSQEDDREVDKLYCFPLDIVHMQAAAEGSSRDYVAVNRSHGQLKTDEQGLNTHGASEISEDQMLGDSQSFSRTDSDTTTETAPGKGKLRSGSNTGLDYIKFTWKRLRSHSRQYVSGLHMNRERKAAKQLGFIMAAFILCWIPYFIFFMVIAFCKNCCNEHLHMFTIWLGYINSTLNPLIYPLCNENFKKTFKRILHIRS

Structure (SMILES): Nc1nc2c(c(N3CCN(CCOCCOCC(=O)O)CC3)n1)CCc1cc(OCc3ccc(Cl)cc3)ccc1-2 [11(b), 2-(2-(2-(4-(2-amino-8-((4-chlorobenzyl)oxy)-5,6-dihydrobenzo[h]quinazolin-4-yl)piperazin-1-yl)ethoxy)ethoxy)acetic Acid]
- IC50 [1, 5]: 200 to 2000 nM
- Ki [2, 6]: < 100 nM
- Ki [3]: < 100 nM
- IC50 [4]: < 200 nM

Structure (SMILES): Nc1nc2c(c(N3CCN(CCOCc4cccc(C(=O)O)c4)CC3)n1)CCc1cc(OCc3ccc(Cl)cc3)ccc1-2 [15(b), 3-((2-(4-(2-amino-8-((4-chlorobenzyl)oxy)-5,6-dihydrobenzo[h]quinazolin-4-yl)piperazin-1-yl)ethoxy)methyl)benzoic acid]
- IC50 [1, 5]: 200 to 2000 nM
- Ki [2, 6]: < 100 nM
- Ki [3]: < 100 nM
- IC50 [4]: < 200 nM

Structure (SMILES): Nc1nc2c(c(N3CCN(CCOCc4cccc(C(=O)O)c4)CC3)n1)CCc1cc(OCc3ccc(OC(F)(F)F)cc3)ccc1-2 [16(b), 3-((2-(4-(2-amino-8-((4-(trifluoromethoxy)benzyl)oxy)-5,6-dihydrobenzo[h]quinazolin-4-yl)piperazin-1-yl)ethoxy)methyl)benzoic acid]
- IC50 [1, 5]: 200 to 2000 nM
- Ki [2, 6]: < 100 nM
- Ki [3]: < 100 nM
- IC50 [4]: < 200 nM

Structure (SMILES): Nc1nc2c(c(N3CCN(CCOCc4ccc(F)c(C(=O)O)c4)CC3)n1)CCc1cc(OCc3ccc(Cl)cc3)ccc1-2 [17(b), 5-((2-(4-(2-amino-8-((4-chlorobenzyl)oxy)-5,6-dihydrobenzo[h]quinazolin-4-yl)piperazin-1-yl)ethoxy)methyl)-2-fluorobenzoic acid]
- IC50 [1, 5]: 200 to 2000 nM
- Ki [2, 6]: < 100 nM
- Ki [3]: < 100 nM
- IC50 [4]: < 200 nM

Structure (SMILES): Nc1nc2c(c(N3CCN(CCOCc4cccc(C(=O)O)n4)CC3)n1)CCc1cc(OCc3ccc(Cl)cc3)ccc1-2 [18(b), 6-((2-(4-(2-amino-8-((4-chlorobenzyl)oxy)-5,6-dihydrobenzo[h]quinazolin-4-yl)piperazin-1-yl)ethoxy)methyl)picolinic acid bis(trifluoroacetate)]
- IC50 [1, 5]: 200 to 2000 nM
- Ki [2, 6]: < 100 nM
- Ki [3]: < 100 nM
- IC50 [4]: < 200 nM

Structure (SMILES): Nc1nc2c(c(N3CCN(CCOc4ccc(C(=O)O)cc4)CC3)n1)CCc1cc(OCc3ccc(Cl)cc3)ccc1-2 [19(b), 4-(2-(4-(2-amino-8-((4-chlorobenzyl)oxy)-5,6-dihydrobenzo[h]quinazolin-4-yl)piperazin-1-yl)ethoxy)benzoic acid]
- IC50 [1, 5]: < 200 nM
- Ki [2, 6]: < 100 nM
- Ki [3]: 100 to 500 nM
- IC50 [4]: 200 to 2000 nM

Structure (SMILES): Nc1nc2c(c(N3CCN(CCOCc4ccc(C(=O)O)o4)CC3)n1)CCc1cc(OCc3ccc(OC(F)(F)F)cc3)ccc1-2 [20(b), 5-((2-(4-(2-amino-8-((4-(trifluoromethoxy)benzyl)oxy)-5,6-dihydrobenzo[h]quinazolin-4-yl)piperazin-1-yl)ethoxy)methyl)furan-2-carboxylic acid]
- IC50 [1, 5]: 200 to 2000 nM
- Ki [2, 6]: < 100 nM
- Ki [3]: < 100 nM
- IC50 [4]: < 200 nM

Structure (SMILES): Nc1nc2c(c(N3CCN(CCO[C@H]4C[C@@H](C(=O)O)C4)CC3)n1)CCc1cc(OCc3ccc(OC(F)(F)F)cc3)ccc1-2 [23(b), cis-3-(2-(4-(2-amino-8-((4-(trifluoromethoxy)benzyl)oxy)-5,6-dihydrobenzo[h]quinazolin-4-yl)piperazin-1-yl)ethoxy)cyclobutane-1-carboxylic acid]
- IC50 [1, 5]: < 200 nM
- Ki [2, 6]: < 100 nM
- Ki [3]: < 100 nM
- IC50 [4]: < 200 nM

Structure (SMILES): Nc1nc2c(c(N3CCN(CCOCc4ccc(C(=O)O)o4)CC3)n1)CCc1cc(OCc3ccc(Cl)cc3)ccc1-2 [127(b), 5-((2-(4-(2-amino-8-((4-chlorobenzyl)oxy)-5,6-dihydrobenzo[h]quinazolin-4-yl)piperazin-1-yl)ethoxy)methyl)furan-2-carboxylic acid]
- IC50 [1, 5]: 200 to 2000 nM
- Ki [2, 6]: 100 to 500 nM
- Ki [3]: < 100 nM
- IC50 [4]: < 200 nM

Structure (SMILES): Nc1nc2c(c(N3CCN(CCOCc4cc(C(=O)O)ccc4F)CC3)n1)CCc1cc(OCc3ccc(Cl)cc3)ccc1-2 [129(b), 3-((2-(4-(2-amino-8-((4-chlorobenzyl)oxy)-5,6-dihydrobenzo[h]quinazolin-4-yl)piperazin-1-yl)ethoxy)methyl)-4-fluorobenzoic acid]
- IC50 [1, 5]: 200 to 2000 nM
- Ki [2, 6]: 100 to 500 nM
- Ki [3]: < 100 nM
- IC50 [4]: < 200 nM

Structure (SMILES): CN1CCN(c2nc(N)nc3c2CCc2cc(OCc4ccc(Cl)cc4)ccc2-3)CC1 [Example 1, 8-((4-chlorobenzyl)oxy)-4-(4-methylpiperazin-1-yl)-5,6-dihydrobenzo[h]quinazolin-2-amine]
- IC50 [1, 5]: < 200 nM
- Ki [2, 6]: < 100 nM
- Ki [3]: < 100 nM
- IC50 [4]: < 200 nM

Structure (SMILES): CN1CCN(c2nc(N)nc3c2CCc2cc(OCc4ccccc4)ccc2-3)CC1 [Example 2, 8-(benzyloxy)-4-(4-methylpiperazin-1-yl)-5,6-dihydrobenzo[h]quinazolin-2-amine]
- IC50 [1]: < 200 nM
- Ki ([2]; Evaluation of H4 Receptor Affinity): < 100 nM
- Ki [3]: < 100 nM
- IC50 [4]: < 200 nM

Structure (SMILES): CN1CCN(c2nc(N)nc3c2CCc2cc(OCc4ccsc4)ccc2-3)CC1 [Example 3, 4-(4-methylpiperazin-1-yl)-8-(thiophen-3-ylmethoxy)-5,6-dihydrobenzo[h]quinazolin-2-amine]
- IC50 [1, 5]: < 200 nM
- Ki [2, 6]: < 100 nM
- Ki [3]: < 100 nM
- IC50 [4]: < 200 nM

Structure (SMILES): Nc1nc2c(c(N3CCN(CCOC[C@H]4CC[C@@H](C(=O)O)CC4)CC3)n1)CCc1cc(OCc3ccc(Cl)cc3)ccc1-2 [Example 12, cis-4-((2-(4-(2-amino-8-((4-chlorobenzyl)oxy)-5,6-dihydrobenzo[h]quinazolin-4-yl)piperazin-1-yl)ethoxy)methyl)cyclohexane-1-carboxylic acid]
- IC50 [1, 5]: 200 to 2000 nM
- Ki [2, 6]: < 100 nM
- Ki [3]: < 100 nM
- IC50 [4]: < 200 nM

Structure (SMILES): Nc1nc2c(c(N3CCN(CCOC[C@H]4CC[C@H](C(=O)O)CC4)CC3)n1)CCc1cc(OCc3ccc(Cl)cc3)ccc1-2 [Example 13, trans-4-((2-(4-(2-amino-8-((4-chlorobenzyl)oxy)-5,6-dihydrobenzo[h]quinazolin-4-yl)piperazin-1-yl)ethoxy)methyl)cyclohexane-1-carboxylic acid]
- IC50 [1, 5]: 200 to 2000 nM
- Ki [2, 6]: < 100 nM
- Ki [3]: < 100 nM
- IC50 [4]: < 200 nM

Structure (SMILES): Nc1nc2c(c(N3CCN(CCO[C@H]4C[C@@H](C(=O)O)C4)CC3)n1)CCc1cc(OCc3ccc(Cl)cc3)ccc1-2 [Example 14, cis-3-(2-(4-(2-amino-8-((4-chlorobenzyl)oxy)-5,6-dihydrobenzo[h]quinazolin-4-yl)piperazin-1-yl)ethoxy)cyclobutane-1-carboxylic acid]
- IC50 [1, 5]: 200 to 2000 nM
- Ki [2, 6]: < 100 nM
- Ki [3]: < 100 nM
- IC50 [4]: < 200 nM

Structure (SMILES): Nc1nc2c(c(N3CCN(CCOCCOCc4nn[nH]n4)CC3)n1)CCc1cc(OCc3ccc(Cl)cc3)ccc1-2 [Example 21, 4-(4-(2-(2-((tetrazol-5-yl)methoxy)ethoxy)ethyl)piperazin-1-yl)-8-((4-chlorobenzyl)oxy)-5,6-dihydrobenzo[h]quinazolin-2-amine]
- IC50 [1, 5]: 200 to 2000 nM
- Ki [2, 6]: < 100 nM
- Ki [3]: < 100 nM
- IC50 [4]: < 200 nM

Structure (SMILES): Nc1nc2c(c(N3CCN(CCOCc4nn[nH]n4)CC3)n1)CCc1cc(OCc3ccc(Cl)cc3)ccc1-2 [Example 22, 4-(4-(2-((tetrazol-5-yl)methoxy)ethyl)piperazin-1-yl)-8-((4-chlorobenzyl)oxy)-5,6-dihydrobenzo[h]quinazolin-2-amine]
- IC50 [1, 5]: 200 to 2000 nM
- Ki [2, 6]: < 100 nM
- Ki [3]: < 100 nM
- IC50 [4]: < 200 nM

Structure (SMILES): Nc1nc2c(c(N3CCN(CCOC[C@H]4CC[C@H](C(=O)O)CC4)CC3)n1)CCc1cc(OCc3ccc(OC(F)(F)F)cc3)ccc1-2 [Example 29, trans-4-((2-(4-(2-amino-8-((4-(trifluoromethoxy)benzyl)oxy)-5,6-dihydrobenzo[h]quinazolin-4-yl)piperazin-1-yl)ethoxy)methyl)cyclohexane-1-carboxylic acid]
- IC50 [1, 5]: < 200 nM
- Ki [2, 6]: < 100 nM
- Ki [3]: < 100 nM
- IC50 [4]: < 200 nM
